Reference: publication PMC11085134, “Chemical Constituents and Anticancer Activities of Marine-Derived Fungus Trichoderma lixii” (Molecules, 2024)
“Also recorded” adds a separate entry of the source. Like-named read-outs stand apart in the source and are kept apart here.

Key:
[1] = system: complex II in the mitochondrial electron transport chain; parameters: method as in PMID 31435860; conditions: cited from earlier work
[2] = system: KMS-11 human myeloma cell line; experiment: Antiproliferative WST-8 assay, KMS-11; format: cell-based; conditions: read-out: Antiproliferative Activity (IC50 ± SE) KMS-11
Source text: (§1) The assessment of antiproliferative effects is a fundamental in vitro assay in the early stages of drug discovery for the screening of potential anticancer compounds that merit further investigation and development for their therapeutic potential in the fight against cancer. The antiproliferative activity of all isolated compounds against three cancer cell lines (KMS-11, HT-29, and PANC-1) was examined by WST-8 based assay according to the manufacturer’s instructions.
(§2) The antiproliferative activity against cancer and normal cell lines was investigated by a WST-8 based assay. […] Compounds to be tested were dissolved in DMSO for stock solution (20 μg/mL) and the final concentration of DMSO was 0.5%. Then, 100 μL of corresponding medium containing 10% WST-8 (Nacalai Tesque, Inc.) was added and incubated for up to 4 h. The absorbance of the formazan products was measured at 450 nm using an iMark^TM microplate reader (Bio-Rad Laboratories, Inc. Hercules, CA, USA). […] Cisplatin (Fujifilm Wako Pure Chemical Corporation) was used as a positive control.

[3] = system: HUVEC (human umbilical vein endothelial cells); experiment: Antiproliferative WST-8 assay, HUVEC; format: cell-based; conditions: 48 h, normal cell line, read-out: Antiproliferative Activity (IC50 ± SE) HUVEC
Experimental: The antiproliferative activity of all eleven isolated compounds against normal cell line HUVEC was also examined by WST-8 based assay (Table 2). […] Further extensive structural modifications and in-depth structure–activity relationship studies are required to enhance efficacy and reduce the side effects on normal cells.
as §2

PANC-1 cancer cells = experiment: Anti-austerity assay (cytotoxicity under glucose starvation vs normal glucose); conditions: for Anti-Austerity Activity Selectivity: Glucose − versus Glucose +; for Selective index (SI): IC50 high glucose versus no glucose media
Experimental: Human myeloma KMS-11, colorectal HT-29, and pancreatic PANC-1 cancer cells were obtained from the Japanese Collection of Research Bioresources (JCRB) Cell Bank (JCRB1179, Osaka, Japan), the American Type Culture Collection (ATCC, HTB-38, Manassas, VA, USA), and the Riken BioResource Research Center (BRC, RCB2095, Ibaraki, Japan), respectively. KMS-11, HT-29, and PANC-1 were cultured in Roswell Park Memorial Institute (RPMI)-1640 medium (Nacalai Tesque, Inc.), McCoy’s 5A medium (Gibco Thermo Fisher Scientific Inc., Waltham, MA, USA), and Dulbecco’s Modified Eagle Medium (DMEM) high glucose (Nacalai Tesque, Inc.), respectively. The culture media contained 10% fetal bovine serum (FBS, Equitech-Bio Inc., Kerrville, TX, USA) and 50 μg/mL kanamycin (Fujifilm Wako Pure Chemical Corporation, Osaka, Japan). To induce cell adaptation to nutrient starvation, PANC-1 was cultured in DMEM no glucose (Nacalai Tesque, Inc.) containing 10% dialyzed FBS (Equitech-Bio Inc.) and 50 μg/mL kanamycin. Human umbilical vein endothelial cells (HUVEC) were obtained from Kurabo Industries Ltd., Osaka, Japan (KE-4109) and cultured in HuMedia-EB2 (Kurabo Industries Ltd.) supplemented with HuMedia-EG (2% FBS, 10 ng/mL human epidermal growth factor, 1.34 μg/mL hydrocortisone, antibacterial agents, 50 μg/mL gentamicin and 50 ng/mL amphotericin B, 5 ng/mL human fibroblast growth factor-B, and 10 μg/mL heparin). Cells were incubated in a humidified incubator at 37 °C in an atmosphere of 5% CO2.
The anti-austerity activity against PANC-1 cell line was investigated by a WST-8 based assay according to the method described above. PANC-1 cells were plated in a 96-well flat bottom plate at a high density of 10,000 cells/100 μL/well in a DMEM high glucose medium overnight. The medium was removed, washed with phosphate-buffered saline (PBS, Nissui Pharmaceutical Co., Ltd., Tokyo, Japan) twice, and then replaced with either DMEM high glucose or DMEM no glucose. After incubation for 12 h, crude extracts (final concentration 100 μg/mL) or serially diluted compounds were added, and the cells were incubated for an additional 12 h. […] Selective index (SI) was based on the difference between the IC50 values obtained from the high glucose and no glucose media. Antimycin A was used as a positive control.

[4] = system: HT-29 human colorectal cell line; experiment: Antiproliferative WST-8 assay, HT-29; format: cell-based; conditions: read-out: Antiproliferative Activity (IC50 ± SE) HT-29
Source text: as §1, §2

[5] = system: PANC-1 human pancreas cell line; experiment: Antiproliferative WST-8 assay, PANC-1; format: cell-based; conditions: read-out: Antiproliferative Activity (IC50 ± SE) PANC-1
Source text: as §1, §2

human cervical HeLa = system: human cervical HeLa; parameters: method as in PMID 29144133; conditions: at 50 μM; cited from earlier work
leukemia K562 = system: leukemia K562; parameters: method as in PMID 29144133; conditions: at 50 μM; cited from earlier work
[6] = system: complex I in helminth mitochondria; conditions: cited from earlier work
[7] = system: mouse lymphoma L5178Y cell line; parameters: method as in earlier work; conditions: at 28 μM; cited from earlier work
leukemia HL-60 = system: leukemia HL-60; parameters: method as in PMID 29144133; conditions: at 50 μM; cited from earlier work
[8] = parameters: method as in PMID 25659618; conditions: oxygen-labile conjugated diene units; cited from earlier work
colon HCT-116 = system: colon HCT-116; parameters: method as in PMID 29144133; conditions: at 50 μM; cited from earlier work
lung A549 = system: lung A549; parameters: method as in PMID 29144133; conditions: at 50 μM; cited from earlier work
[9] = system: KMS-11, HT-29, and PANC-1 cancer cell lines; experiment: Antiproliferative activity, summary over the three cancer cell lines; format: cell-based, human; conditions: for IC50: Homo sapiens, 48 h, KMS-11, HT-29 and PANC-1, read-out: IC50, antiproliferative, over all tested cancer cell lines
Source text: as §1, §2

breast MCF-7 = system: breast MCF-7; parameters: method as in PMID 29144133; conditions: at 50 μM; cited from earlier work
Escherichia coli = system: Escherichia coli; parameters: method as in PMID 26728965, PMID 32676071, PMID 32077325, doi:10.1007/s10600-022-03814-7; conditions: cited from earlier work
[10] = parameters: method as in PMID 31030449, PMID 36005532; conditions: cited from earlier work
[11] = parameters: method as in PMID 31030449, PMID 36005532; conditions: cited from earlier work; remark: listed apart in the source
[12] = Homo sapiens, PANC-1, 12 h, read-out: Anti-Austerity Activity (IC50 ± SE) Glucose +
[13] = Homo sapiens, PANC-1, 12 h, read-out: Anti-Austerity Activity (IC50 ± SE) Glucose −

SMILES	IC50 ([2]; Homo sapiens, KMS-11, 48 h) [µM]	IC50 ([3]; Homo sapiens, HUVEC) [µM]	Anti-Austerity Activity Selectivity (PANC-1 cancer cells)	IC50 (PANC-1 cancer cells; [12]) [µM]	IC50 (PANC-1 cancer cells; [13]) [µM]	Selective index (SI) (PANC-1 cancer cells)	IC50 ([4]; Homo sapiens, HT-29, 48 h) [µM]	IC50 ([5]; Homo sapiens, PANC-1, 48 h) [µM]	IC50 [9] [µM]	also measured
COc1ccc(C2SSC34CC5(O)C(Cl)C=CC(O)C5ON3C(=O)C2NC4=O)c(O)c1OC (stereo not shown) [Compound 4, DC1149B]	7.6 ± 0.4	6.94 ± 0.86	selective	213 ± 4.07	22.4 ± 2.5	10	39.2 ± 4.6	24.7 ± 4.44		Inhibition of complex II in the mitochondrial electron transport chain [1]: inhibition
CCCCCC[C@H]1C(=O)O[C@H](C)[C@H](NC(=O)c2cccc(NC=O)c2O)C(=O)O[C@@H](C)[C@@H]1OC(=O)CC(C)C [Antimycin A, reference compound]			selective	> 300	0.0162 ± 0.00026	≥ 18,480				
CCC(C)C=CC=C(C)CC(C)C=CC=CC1OC(=O)C(O)C2OC12C (stereo not shown) [Compound 9, nafuredin A]	6.9 ± 1.84	2.45 ± 0.16	selective	76.7 ± 3.22	49 ± 1.31	2	11.9 ± 0.55	15.3 ± 0.44	6.9 to 15.3	Cytotoxicity (human cervical HeLa): no cytotoxicity; Cytotoxicity (leukemia K562): no cytotoxicity; Inhibition of complex I in helminth mitochondria [6]: selective inhibition; Cytotoxicity [7]: no cytotoxicity; Cytotoxicity (leukemia HL-60): no cytotoxicity; Stability in air [8]: unstable in air; Cytotoxicity (colon HCT-116): no cytotoxicity; Cytotoxicity (lung A549): no cytotoxicity; Cytotoxicity (breast MCF-7): no cytotoxicity; Antibacterial activity against Escherichia coli (Escherichia coli): exhibited antibacterial activity
N.N.[Cl][Pt][Cl] [Cisplatin, reference compound]										IC50 ([2]; 48 h): 4.91 ± 1.06 µM; IC50 [3]: 13.7 ± 2.57 µM; IC50 (PANC-1 cancer cells; read-out: Anti-Austerity Activity (IC50 ± SE) Glucose +, 12 h, normal glucose (DMEM high glucose)): > 100 µM; IC50 (PANC-1 cancer cells; read-out: Anti-Austerity Activity (IC50 ± SE) Glucose −, 12 h, glucose starvation (DMEM no glucose)): > 100 µM; IC50 (PANC-1 cancer cells; read-out: IC50 against PANC-1 under both glucose starvation and normal glucose conditions, 12 h, both Glucose − and Glucose +): > 100 µM; IC50 ([4]; 48 h): 10.6 ± 0.83 µM; IC50 ([5]; 48 h): 28.6 ± 3.43 µM
COc1cc(O)c2c(=O)c(C)c(C)oc2c1 [Compound 8, 5-hydroxy-2,3-dimethyl-7-methoxychromone]	> 100	> 100		> 100	> 100		> 100	> 100	> 100	Antimicrobial activity [10]: weak or no; DPPH scavenging activity [11]: weak or no
COc1ccc2cc(NC(=O)C3=NO[C@H]4[C@H](O)C=C[C@@H](O)[C@@]4(O)C3)c(=O)oc2c1OC [Compound 1, trichodermamide A]	> 100	> 100		> 100	> 100		> 100	> 100		Antiproliferative activity in words ([9]; all tested cell lines): completely inactive; IC50 (PANC-1 cancer cells; Homo sapiens, PANC-1, 12 h, read-out: IC50 against PANC-1 under both glucose starvation and normal glucose conditions): > 100 µM
CC(C)[C@@H](C)/C=C/[C@@H](C)[C@H]1CC[C@@H]2[C@]1(C)CC[C@H]1[C@]23C=C[C@]2(C[C@@H](O)CC[C@]12C)OO3 [Compound 5, ergosterol peroxide]	> 100	> 100		> 100	> 100		> 100	> 100	> 100	
COc1ccc2cc(NC(=O)C3=NO[C@H]4[C@H](O)C=C[C@@H](Cl)[C@@]4(O)C3)c(=O)oc2c1OC [Compound 2, trichodermamide B]	1.38 ± 0.12	1.69 ± 0.26	did not display selectivity; also recorded: not selective	11.6 ± 1.59	17.8 ± 4.75		0.73 ± 0.12	3.58 ± 0.32	0.7 to 3.6	
COc1ccc2cc(NC(=O)[C@@]34C[C@@]5(O)C(ON3)[C@H](O)C=C[C@H]5S4)c(=O)oc2c1OC (stereo partly shown) [Compound 3, aspergillazine A]	38 ± 7.72	26.2 ± 5.51	selective	> 400	75.6 ± 4.08	≥ 5	22.2 ± 3.09	50.3 ± 4.21		
